{"source": "ChEMBL document CHEMBL3585271", "about": "(Bioorg Med Chem, 2015)", "key": {"Homo sapiens": {"organism": "Homo sapiens", "experiment": "Selectivity index, ratio of IC50 for human recombinant MAO-A to IC50 for human recombinant MAO-B"}, "[1]": {"target": "T1, Amine oxidase [flavin-containing] B (Homo sapiens, UniProt P27338)", "T1 sequence (P27338 whole entry)": "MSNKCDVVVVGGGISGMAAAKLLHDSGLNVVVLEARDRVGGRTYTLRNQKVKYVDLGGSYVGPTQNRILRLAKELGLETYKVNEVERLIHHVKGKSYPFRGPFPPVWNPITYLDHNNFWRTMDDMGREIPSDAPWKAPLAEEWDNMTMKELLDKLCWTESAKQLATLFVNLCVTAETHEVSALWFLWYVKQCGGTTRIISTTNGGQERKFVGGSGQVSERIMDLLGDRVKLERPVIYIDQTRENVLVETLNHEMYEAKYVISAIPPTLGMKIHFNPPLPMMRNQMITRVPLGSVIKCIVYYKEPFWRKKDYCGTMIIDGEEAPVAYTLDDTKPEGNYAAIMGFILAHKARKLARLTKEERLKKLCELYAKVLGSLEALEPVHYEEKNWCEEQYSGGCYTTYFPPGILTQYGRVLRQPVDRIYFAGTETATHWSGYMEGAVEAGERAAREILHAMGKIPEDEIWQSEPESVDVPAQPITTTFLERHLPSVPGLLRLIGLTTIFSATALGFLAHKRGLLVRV", "description": "Inhibition of human recombinant MAO-B using benzylamine as substrate incubated for 15 mins prior to substrate addition measured after 20 mins by fluorescence plate reader analysis"}, "physchem": {"experiment": "physchem", "details": "PAMPA; call rule not given here"}, "[2]": {"experiment": "Antioxidant activity assessed as trolox equivalent of AAPH radical scavenging activity compound preincubated for 10 mins followed by AAPH challenge measured every min for 120 mins by ORAC-FL assay", "type": "physicochemical", "details": "2 h"}, "[3]": {"target": "T2, Amine oxidase [flavin-containing] A (Homo sapiens, UniProt P21397)", "T2 sequence (P21397 whole entry)": "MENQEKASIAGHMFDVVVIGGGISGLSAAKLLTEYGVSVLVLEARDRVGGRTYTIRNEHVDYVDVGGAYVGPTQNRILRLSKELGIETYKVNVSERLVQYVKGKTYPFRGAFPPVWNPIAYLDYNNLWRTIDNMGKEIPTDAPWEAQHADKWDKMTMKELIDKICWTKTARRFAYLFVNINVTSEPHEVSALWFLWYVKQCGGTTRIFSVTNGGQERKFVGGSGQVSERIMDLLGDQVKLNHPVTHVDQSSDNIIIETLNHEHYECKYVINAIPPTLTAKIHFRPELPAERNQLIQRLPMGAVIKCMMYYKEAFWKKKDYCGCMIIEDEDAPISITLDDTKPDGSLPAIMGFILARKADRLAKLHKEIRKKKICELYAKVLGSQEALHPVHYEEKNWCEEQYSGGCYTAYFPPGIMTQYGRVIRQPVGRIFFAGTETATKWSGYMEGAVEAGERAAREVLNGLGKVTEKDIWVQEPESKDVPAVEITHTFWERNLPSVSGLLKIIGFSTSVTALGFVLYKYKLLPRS", "description": "Inhibition of human recombinant MAO-A using p-tyramine as substrate incubated for 15 mins prior to substrate addition measured after 20 mins by fluorescence plate reader analysis"}, "[4]": {"target": "Amyloid-beta precursor protein (Homo sapiens) (UniProt P05067)", "sequence (P05067 whole entry)": "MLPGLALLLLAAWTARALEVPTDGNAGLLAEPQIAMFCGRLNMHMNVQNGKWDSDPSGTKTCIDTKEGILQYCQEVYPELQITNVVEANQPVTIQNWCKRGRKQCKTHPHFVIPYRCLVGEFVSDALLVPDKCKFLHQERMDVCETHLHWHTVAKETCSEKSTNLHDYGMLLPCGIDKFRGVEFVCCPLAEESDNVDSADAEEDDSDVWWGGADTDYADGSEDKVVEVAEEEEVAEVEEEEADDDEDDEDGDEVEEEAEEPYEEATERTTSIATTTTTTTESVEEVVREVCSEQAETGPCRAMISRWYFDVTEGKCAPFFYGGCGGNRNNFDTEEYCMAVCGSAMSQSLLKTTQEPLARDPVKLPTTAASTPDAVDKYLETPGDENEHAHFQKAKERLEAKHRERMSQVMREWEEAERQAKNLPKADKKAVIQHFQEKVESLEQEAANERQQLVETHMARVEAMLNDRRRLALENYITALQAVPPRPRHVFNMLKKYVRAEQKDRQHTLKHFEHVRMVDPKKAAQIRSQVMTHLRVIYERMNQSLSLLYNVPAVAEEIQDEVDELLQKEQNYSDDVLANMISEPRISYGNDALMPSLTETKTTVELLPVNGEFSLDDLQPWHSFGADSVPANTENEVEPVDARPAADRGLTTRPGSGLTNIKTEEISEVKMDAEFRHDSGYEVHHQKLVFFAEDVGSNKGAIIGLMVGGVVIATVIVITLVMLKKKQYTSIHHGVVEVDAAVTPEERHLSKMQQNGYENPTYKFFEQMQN", "experiment": "Inhibition of Cu2+-induced amyloid beta (1 to 42) aggregation (unknown origin) at 50 uM after 24 hrs by thioflavin T fluorescence assay (reference value: 100%)", "set-up": "scale not given: the % may be the effect or the level left"}, "[5]": {"experiment": "Metal chelating activity of the compound assessed as Cu2+ complex formation at 40 uM after 30 mins by UV-vis spectrometry", "type": "physicochemical", "details": "0.5 h"}, "[6]": {"experiment": "Metal chelating activity of the compound assessed as Zn2+ complex formation at 40 uM after 30 mins by UV-vis spectrometry", "type": "physicochemical", "details": "0.5 h"}, "[7]": {"experiment": "Metal chelating activity of the compound assessed as Fe2+ complex formation at 40 uM after 30 mins by UV-vis spectrometry", "type": "physicochemical", "details": "0.5 h"}}}
{"molecule": "C#CCN(C)[C@H](C)Cc1ccc(NCc2ncccc2C)cc1", "values": [{"measurement": "Ratio IC50", "setting": "Homo sapiens", "value": 10.6}, {"measurement": "IC50", "setting": "[1]", "value": 520, "unit": "nM"}, {"measurement": "Papp at 10 h, 100 ug/mL", "setting": "physchem", "value": 12.1, "unit": "×10⁻⁶ cm/s"}, {"measurement": "Activity", "setting": "[2]", "value": 1.78, "unit": "µmol"}, {"measurement": "IC50", "setting": "[3]", "value": 5530, "unit": "nM"}]}
{"molecule": "C#CCN(C)[C@H](C)Cc1ccc(NCc2cc(OC)ccc2O)cc1", "values": [{"measurement": "Ratio IC50", "setting": "Homo sapiens", "value": 3.3}, {"measurement": "IC50", "setting": "[1]", "value": 310, "unit": "nM"}, {"measurement": "Papp at 10 h, 100 ug/mL", "setting": "physchem", "value": 11.7, "unit": "×10⁻⁶ cm/s"}, {"measurement": "Activity", "setting": "[2]", "value": 3.81, "unit": "µmol"}, {"measurement": "IC50", "setting": "[3]", "value": 1020, "unit": "nM"}]}
{"molecule": "C#CCN(C)[C@H](C)Cc1ccc(NCc2cc(Cl)ccc2O)cc1", "values": [{"measurement": "Ratio IC50", "setting": "Homo sapiens", "value": 2.2}, {"measurement": "IC50", "setting": "[1]", "value": 310, "unit": "nM"}, {"measurement": "Activity", "setting": "[2]", "value": 4.44, "unit": "µmol"}, {"measurement": "IC50", "setting": "[3]", "value": 700, "unit": "nM"}]}
{"molecule": "CCN(CC)CCCC(C)Nc1ccnc2cc(Cl)ccc12", "note": "(stereo not given)", "values": [{"measurement": "Activity", "setting": "[4]", "value": 68.2, "unit": "%"}]}
{"molecule": "C#CCN(C)[C@H](C)Cc1ccc(NCc2cccc(OC)c2O)cc1", "values": [{"measurement": "IC50", "setting": "[1]", "value": "> 1000", "unit": "nM"}, {"measurement": "Activity", "setting": "[2]", "value": 2.44, "unit": "µmol"}]}
{"molecule": "C#CCN(C)[C@H](C)Cc1ccc(NCc2cc(F)ccc2O)cc1", "values": [{"measurement": "IC50", "setting": "[1]", "value": "> 1000", "unit": "nM"}, {"measurement": "Activity", "setting": "[2]", "value": 2.26, "unit": "µmol"}]}
{"molecule": "C#CCN(C)[C@H](C)Cc1ccc(NCc2cc([N+](=O)[O-])ccc2O)cc1", "values": [{"measurement": "IC50", "setting": "[1]", "value": 950, "unit": "nM"}, {"measurement": "Activity", "setting": "[2]", "value": 2.1, "unit": "µmol"}]}
{"molecule": "C#CCN(C)[C@H](C)Cc1ccc(NCc2cc(N(C)C)ccc2O)cc1", "values": [{"measurement": "IC50", "setting": "[1]", "value": "> 1000", "unit": "nM"}, {"measurement": "Papp at 10 h, 100 ug/mL", "setting": "physchem", "value": 12.5, "unit": "×10⁻⁶ cm/s"}, {"measurement": "Activity", "setting": "[2]", "value": 4.52, "unit": "µmol"}]}
{"molecule": "C#CCN(C)[C@H](C)Cc1ccc(NCc2cc(O)ccc2O)cc1", "values": [{"measurement": "Activity", "setting": "[4]", "value": 63.1, "unit": "%"}, {"measurement": "Ratio IC50", "setting": "Homo sapiens", "value": 2.4}, {"measurement": "IC50", "setting": "[1]", "value": 430, "unit": "nM"}, {"measurement": "Papp at 10 h, 100 ug/mL", "setting": "physchem", "value": 3.1, "unit": "×10⁻⁶ cm/s"}, {"measurement": "Activity", "setting": "[2]", "value": 5.67, "unit": "µmol"}, {"measurement": "IC50", "setting": "[3]", "value": 1030, "unit": "nM"}]}
{"molecule": "C#CCN(C)[C@H](C)Cc1ccc(NCc2ccc(OC)cc2O)cc1", "values": [{"measurement": "IC50", "setting": "[1]", "value": "> 1000", "unit": "nM"}, {"measurement": "Activity", "setting": "[2]", "value": 4.35, "unit": "µmol"}]}
{"molecule": "C#CCN(C)[C@H](C)Cc1ccc(NCc2ccccc2O)cc1", "values": [{"measurement": "Activity", "setting": "[4]", "value": 40.4, "unit": "%"}, {"measurement": "Ratio IC50", "setting": "Homo sapiens", "value": 25.6}, {"measurement": "IC50", "setting": "[1]", "value": 210, "unit": "nM"}, {"measurement": "Papp at 10 h, 100 ug/mL", "setting": "physchem", "value": 11.5, "unit": "×10⁻⁶ cm/s"}, {"measurement": "Activity", "setting": "[2]", "value": 4.2, "unit": "µmol"}, {"measurement": "Activity", "setting": "[5]", "value": "Active"}, {"measurement": "IC50", "setting": "[3]", "value": 5370, "unit": "nM"}, {"measurement": "Activity", "setting": "[6]", "value": "Active"}, {"measurement": "Activity", "setting": "[7]", "value": "Active"}]}
{"molecule": "C#CCN(C)[C@H](C)Cc1ccc(NCc2ncccc2OC)cc1", "values": [{"measurement": "Activity", "setting": "[4]", "value": 69.1, "unit": "%"}, {"measurement": "IC50", "setting": "[1]", "value": 310, "unit": "nM"}, {"measurement": "Activity", "setting": "[2]", "value": 1.49, "unit": "µmol"}, {"measurement": "IC50", "setting": "[3]", "value": 3410, "unit": "nM"}]}
